From patent US7598421B2, “Materials for the delivery of biologically-active material to cells” (UCL Biomedica PLC, priority 2002, dated 2009)

Assays:
[1] = tested on: Human airway epithelial cells; assay: Transfection efficiency, luciferase assay in HAE cells (Example 19); format: cell-based; set-up: scale not given here; conditions: peptide:DNA 4:1, peptide [K]16 GACRRETAWACG
Method: The activity of various compositions of the invention was measured in HAE cells using a Luciferase assay. RLU/mg refers to relative light units per mg of protein. The assay was carried out as follows:
Lipid (10 mg/mL; […] [1 mg of lipid]) in chloroform was placed into a glass vial (sterile). The solvents were removed in vacuo and further traces of chloroform were removed on the high vacuum for 24 h. Cationic lipids were either formulated alone or with DOPE (mole ratio, 1:1).
Deionized water (1 mL; MilliQ) was added to the film, to generate […] solution of lipid in water. The mixture was allowed to hydrate at 4° C. for 24 h. After warming to 40° C. the mixture was sonicated to generate a clear solution (5 in approx). The resulting liposome formulations were stable for up to 3 months.
The components of the complex were mixed in the required weight ratio. The lipid was initially mixed with the peptide and the resulting mixture was added to the plasmid DNA.
Human airway epithelial cells were seeded for 24 h at 37 °C in complete growth medium in a […]. Transfection complexes were left to aggregate for 30 min and diluted to a concentration of 1 μg of DNA per 0.5 ml in OptiMEM (Life technologies). The medium was removed from each well and replaced with 0.5 ml of transfection complex and was allow to incubate for a further 4 h. The transfection complexes were removed and then replace with growth medium and the cells were allowed to incubate for 48 h.
The transfected cells were washed with phosphate-buffered saline (PBS). Reporter lysis buffer (100 μl) (Promega) was added to each well and cooled to 4 °C for 15 min. The cells were then assayed with a luciferase assay kit. The total light emission was measured for each well for 60 sec. The protein concentration of each sample was determined using a protein assay reagent and the activity expressed as relative light units per milligram of protein (RLU/mg).
The values obtained for the lipids produced in Examples 17 and 18 above and for Lipofectin were measured at 1:1 and 2:1 ratios of lipid:DNA, and in each case the ratio of peptide:DNA was 4:1, the peptide used being [K]16 GACRRETAWACG. The ratios are expressed in terms of weight. The testing procedure used was that outlined in Human Gene Therapy 9, 575-585, 1998.

[2] = tested on: integrins; conditions: cited from earlier work; for affinity and specificity for integrins: literature

With CCCCCCCC/C=C\CCCCCCCC(=O)OC(C[N+](C)(C)C)C(C[N+](C)(C)C)OC(=O)CCCCCCC/C=C\CCCCCCCC.[I-].[I-] (centres unmarked) [Example 17, 1,4-Di(trimethylammonium)-2,3-dioleoyloxy-butane; diiodide] the “luciferase activity, relative light units per mg of protein” value ([1]; 1:1 lipid:DNA by weight) was 1.2 RLU/mg and the “luciferase activity, relative light units per mg of protein” value ([1]; 2:1 lipid:DNA by weight) was 2.0 RLU/mg.

With CCCCCCCC/C=C\CCCCCCCCOC(C[N+](C)(C)C)C(C[N+](C)(C)C)OCCCCCCCC/C=C\CCCCCCCC (centres unmarked) [Example 18, 1,4-Di(trimethylammonium)-2,3-dioleyloxy-butane; diiodide] the “luciferase activity, relative light units per mg of protein” value ([1]; 1:1 lipid:DNA by weight) was 43.2 RLU/mg and the “luciferase activity, relative light units per mg of protein” value ([1]; 2:1 lipid:DNA by weight) was 373.3 RLU/mg.

In the case of GACDCRGDCFCA [Peptide 5], the “affinity and specificity for integrins” value [2] is given as “high affinity for integrin v but is not v-specific” and the integrin specificity ([2]; table of peptides) is given as “Peptide 5 (αv)”.

In the case of GACRGDMFGCA [Peptide 1], the “affinity and specificity for integrins” value [2] is given as “affinity for 5 and av integrins but is non-specific”.

In the case of GACRRETAWACG [Peptide 6], the “affinity and specificity for integrins” value [2] is listed as 51-specific.
